Consider 4 molecules from paper PMC9101642 (Molecules, 2022).

In one data set the test system is MDA-MB-231 cell lines. Nature of the data set: MTT antiproliferative assay. In kind it is cell-based, human. The conditions noted are these: Homo sapiens, MDA-MB-231; growth inhibition, 48 h; read-out: MDA-MB-231 (IC50 nM). (Tetrazolium dyes change colour on reduction, which living cells bring about.)
Data set [1] concerns the target T1, ERα (Homo sapiens, UniProt P03372).
T1 sequence (P03372 1-595): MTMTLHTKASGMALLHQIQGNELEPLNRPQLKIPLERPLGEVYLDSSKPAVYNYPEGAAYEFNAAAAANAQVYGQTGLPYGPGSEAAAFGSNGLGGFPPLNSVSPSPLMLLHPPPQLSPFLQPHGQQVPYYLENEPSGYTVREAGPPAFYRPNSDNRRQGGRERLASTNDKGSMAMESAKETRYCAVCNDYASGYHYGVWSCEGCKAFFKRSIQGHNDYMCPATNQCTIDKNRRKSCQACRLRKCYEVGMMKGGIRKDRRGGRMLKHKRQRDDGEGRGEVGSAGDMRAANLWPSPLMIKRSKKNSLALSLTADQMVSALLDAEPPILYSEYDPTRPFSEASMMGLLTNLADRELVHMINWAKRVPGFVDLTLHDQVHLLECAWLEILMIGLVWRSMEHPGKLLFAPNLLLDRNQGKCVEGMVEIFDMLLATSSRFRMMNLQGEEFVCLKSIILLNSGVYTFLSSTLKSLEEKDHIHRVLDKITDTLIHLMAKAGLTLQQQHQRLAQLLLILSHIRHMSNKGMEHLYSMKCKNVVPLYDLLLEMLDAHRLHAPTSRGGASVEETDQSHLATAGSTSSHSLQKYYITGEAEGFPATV
As to the kind of experiment: Fluorescence polarization competition assay: antagonistic potency and relative binding affinity. The conditions noted are these: for logRBA ERα: log of % relative binding affinity, estradiol = 100%; for ERα potency, fold higher than Ral / ERα potency, fold more potent than 4-OHT: ratio of IC50 values. For orientation: Polarisation of emitted light reports the rotation of a fluorescent probe.

Data set [2] relates to progesterone receptor (PR). As to the kind of experiment: ERα functional antagonism cell assay (PR as biomarker) in MCF-7. In kind it is cell-based. The conditions noted are these: Homo sapiens, MCF7; progesterone receptor as biomarker for ERα antagonism in MCF-7.
For data set [3], the system named is Ishikawa endometrial adenocarcinoma cells. Nature of the data set: Antiproliferative assay. Conditions: Homo sapiens, growth inhibition. The data set is classed as cell-based. The text has this: As SERMs profile is often associated with the stimulation of endometrial cell proliferation and an increase in the incidence of endometrial cancer (EC), the herein compounds were therefore evaluated against Ishikawa endometrial adenocarcinoma cells (Table 8, Supplementary Material Figures […]). […] However, future experimental elaboration, currently beyond the authors' experimental facilities, is required to confirm compounds' promising profiles in terms of no EC induction.

A further data set has as its system MCF-7 cells. Nature of the data set: Cell cycle distribution by flow cytometry. The data set is classed as cell-based, human. Conditions: 24 h. In general terms: Flow cytometry measures light scatter and fluorescence of single cells or particles in a stream.
Data set [4] is described as follows: MTT antiproliferative assay (neutral control). Conditions: human.
For another data set, the target named is ERβ (Homo sapiens, UniProt Q92731). Nature of the data set: Fluorescence polarization competition assay: antagonistic potency and relative binding affinity. Conditions: for logRBA ERβ: log of % relative binding affinity, estradiol = 100%.
The subject of a further data set is MCF-7 cell lines. As to the kind of experiment: MTT antiproliferative assay. The data set is classed as cell-based, human. The conditions noted are these: for IC50: Homo sapiens, MCF7, growth inhibition, 48 h, read-out: MCF-7 (IC50 nM); for MCF-7 antiproliferative potency, fold higher than Ral: ratio of IC50 values; for SI: selectivity index [IC50(MDA-MB-231)]/[IC50(MCF-7)].

Data set [5] concerns the target T1, ERα. Nature of the data set: ERα down-regulation immunofluorescence assay in MCF-7. The data set is classed as cell-based.
Where [6] appears, read: calculated antagonistic (inhibitory) constant.
Setting [7] is: concentration that antagonizes 50% of ERα signaling activity, read-out: ERα (IC50 nM).
Where [8] appears, read: concentration that antagonizes 50% of ERβ signaling activity, read-out: ERβ (IC50 nM).
Setting [9] is: ERα downregulation measured in MCF-7, read-out: MCF-7 DR (IC50 nM).
Where [10] appears, read: 1 nM as lower concentration (3DPQ-5, 3DPQ-6, 3DPQ-8).

Read-outs that look alike come from different tables or passages of the source. Marks after values point to notes of the source that are not given here.

ERβ, sequence (Q92731 whole entry): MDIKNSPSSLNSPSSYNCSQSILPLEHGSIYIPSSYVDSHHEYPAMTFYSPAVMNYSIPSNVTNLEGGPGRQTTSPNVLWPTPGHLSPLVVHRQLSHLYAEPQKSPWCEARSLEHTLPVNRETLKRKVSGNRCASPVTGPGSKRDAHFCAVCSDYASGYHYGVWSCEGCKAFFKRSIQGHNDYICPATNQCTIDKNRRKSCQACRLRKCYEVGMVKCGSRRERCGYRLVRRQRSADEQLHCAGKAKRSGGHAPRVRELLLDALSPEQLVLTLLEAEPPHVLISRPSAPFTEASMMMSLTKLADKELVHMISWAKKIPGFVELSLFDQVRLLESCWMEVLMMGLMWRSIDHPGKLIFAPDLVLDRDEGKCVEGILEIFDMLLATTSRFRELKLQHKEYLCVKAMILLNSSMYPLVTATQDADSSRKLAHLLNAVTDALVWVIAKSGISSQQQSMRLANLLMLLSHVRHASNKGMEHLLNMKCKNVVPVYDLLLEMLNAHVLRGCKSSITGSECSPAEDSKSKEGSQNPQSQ

With `CC(=O)c1cc(C(=O)O[C@@H]2/C=C/C(=O)O[C@@H](O)CCC/C=C/[C@@H]3C[C@H](O)C[C@H]32)ccc1OCCN1C=Cc2ccccc2C1` [Compound 3DPQ-7, (1R,2E,6R,10E,11aS,13S,14aR)-6,13-dihydroxy-4-oxo-4,6,7,8,9,11a,12,13,14,14a-decahydro-1H-cyclopenta[f][1]oxacyclotridecin-1-yl 3-acetyl-4-(2-(isoquinolin-2(1H)-yl)ethoxy)benzoate], the IC50 (usually the point on the concentration scale where inhibition reaches its midpoint) in the data set on MDA-MB-231 cell lines is 52 ± 0.68 nM; on ERα [1] (setting [7]) it was 0.64 ± 0.13 nM; in data set [2] it was above 100 nM; in data set [3], 1.74 ± 0.43 nM; at ERβ (setting [8]), 72.34 ± 0.17 nM; in the data set with MCF-7 cell lines, 0.78 ± 0.52 nM. Besides, the IC50 at ERα [5] (setting [9]) is above 100 nM. Further, the “Ka ERα (nM)” value on ERα [1] (setting [6]) is given as 0.14 ^†,‡ nM. In addition, the “logRBA ERα” value at ERα [1] was 2.14 ^†,‡. The “ERα potency, fold higher than Ral” value on ERα [1] was found to be 1.16 fold. Besides, the entries for the “Cell Cycle (%) G0/G1” value in the data set with MCF-7 cells (0.1 nM) and with MCF-7 cells (1 nM) were 73.25 ± 2.54 *^,†,‡,§ % and 75.71 ± 1.43 *^,†,‡,§ %, respectively. The “Cell Cycle (%) G2/M” value was 12.69 ± 2.64 *^,†,‡,§ % in the data set with MCF-7 cells (0.1 nM) and 9.53 ± 3.54 *^,†,‡,§ % in the data set with MCF-7 cells (1 nM). The “Cell Cycle (%) S” value in the data set on MCF-7 cells (0.1 nM) is given as 14.06 ± 1.58 *^,†,‡,§ %; with MCF-7 cells (1 nM), 14.77 ± 1.46 *^,†,‡,§ %. Moreover, in data set [4], the IC50 at 48 h was above 0.1 µM. Further, the “Ka ERβ (nM)” value at ERβ (setting [6]) is given as 40.64 ^†,‡,§ nM. On ERβ, the “logRBA ERβ” value is on record as 0.09 ^†,‡,§. Also, the “MCF-7 antiproliferative potency, fold higher than Ral” value with MCF-7 cell lines is reported as 1.14 fold. Also, in the data set with MCF-7 cell lines, the SI is recorded as 66.61 ^‡,§.
As to `CC(=O)c1cc(C(=O)O[C@@H]2/C=C/C(=O)O[C@@H](O)CCC/C=C/[C@@H]3C[C@H](O)C[C@H]32)ccc1OCCN1CCCC2CCCNC21` (stereo partly drawn) [Compound 3DPQ-8, (1R,2E,6R,10E,11aS,13S,14aR)-6,13-dihydroxy-4-oxo-4,6,7,8,9,11a,12,13,14,14a-decahydro-1H-cyclopenta[f][1]oxacyclotridecin-1-yl 3-acetyl-4-(2-(octahydro-1,8-naphthyridin-1(2H)-yl)ethoxy)benzoate], the IC50 in the data set with MDA-MB-231 cell lines was 42.56 ± 0.35 nM; on ERα [1] (setting [7]), 0.81 ± 0.14 nM; in [2] it was above 100 nM; in [3] it was 1.98 ± 0.32 nM; at ERβ (setting [8]) it was 72.3 ± 0.78 nM; in the data set on MCF-7 cell lines, 1.06 ± 0.45 nM. The IC50 at ERα [5] (setting [9]) was above 100 nM. For the same molecule, the Ki at ERα [1] (calculated antagonistic (inhibitory) constant, read-out: Ka ERα) was 0.00018 µM; at ERβ (calculated antagonistic (inhibitory) constant, read-out: Ka ERβ) it was 0.0406 µM. The “logRBA ERα” value at ERα [1] is 2.04 ^‡. The “ERα potency, fold more potent than 4-OHT” value at ERα [1] is 1.38 fold. Also, the “Cell Cycle (%) G0/G1” value in the data set on MCF-7 cells (setting [10]) is reported as 72.39 ± 1.43 *^,†,‡,§ %; with MCF-7 cells (10 nM (3DPQ-5, 3DPQ-6, 3DPQ-8)), 74.85 ± 2.54 *^,†,‡,§ %. The “Cell Cycle (%) G2/M” value in the data set with MCF-7 cells (setting [10]) is 15.11 ± 2.56 *^,†,‡,§ %; with MCF-7 cells (10 nM (3DPQ-5, 3DPQ-6, 3DPQ-8)) it was 11.95 ± 2.45 *^,†,‡,§ %. Further, the “Cell Cycle (%) S” value with MCF-7 cells (setting [10]) is 12.50 ± 1.22 *^,†,‡,§ %; in the data set with MCF-7 cells (10 nM (3DPQ-5, 3DPQ-6, 3DPQ-8)), 13.21 ± 2.15 *^,†,‡,§ %. In addition, in data set [4], the IC50 at 48 h was above 0.1 µM. Further, the “logRBA ERβ” value on ERβ is on record as 0.09 ^†,‡,§. The SI with MCF-7 cell lines was 40.15 ^‡,§.
As to `CC(=O)c1cc(C(=O)O[C@@H]2/C=C/C(=O)O[C@@H](O)CCC/C=C/[C@@H]3C[C@H](O)C[C@H]32)ccc1OCCN1CCCCC1` [Compound 3DPQ-10, (1R,2E,6R,10E,11aS,13S,14aR)-6,13-dihydroxy-4-oxo-4,6,7,8,9,11a,12,13,14,14a-decahydro-1H-cyclopenta[f][1]oxacyclotridecin-1-yl 3-acetyl-4-(2-(piperidin-1-yl)ethoxy)benzoate], the IC50 with MDA-MB-231 cell lines was determined as 41.97 ± 0.32 nM. On ERα [1], the IC50 amounted to 0.77 ± 0.14 nM; the Ki is 0.00017 µM; the “logRBA ERα” value is 2.06 ^‡; the “ERα potency, fold more potent than 4-OHT” value is reported as 1.45 fold. The IC50 in data set [2] was above 100 nM. The molecule further registered an IC50 in [3] of 1.55 ± 0.42 nM. In addition, in the data set with MCF-7 cells (0.1 nM), the “Cell Cycle (%) G0/G1” value was 71.96 ± 1.43 *^,†,‡,§ %, the “Cell Cycle (%) G2/M” value is recorded as 16.08 ± 1.56 *^,†,‡,§ % and the “Cell Cycle (%) S” value was 11.96 ± 2.41 *^,†,‡,§ %. Moreover, in the data set on MCF-7 cells (1 nM), the “Cell Cycle (%) G0/G1” value was 74.42 ± 2.12 *^,†,‡,§ %, the “Cell Cycle (%) G2/M” value was 12.92 ± 4.32 *^,†,‡,§ % and the “Cell Cycle (%) S” value was 12.67 ± 2.46 *^,†,‡,§ %. This molecule showed an IC50 at 48 h in data set [4] above 0.1 µM. At ERβ, the IC50 is 79.54 ± 0.76 nM, the Ki amounted to 0.0447 µM and the “logRBA ERβ” value is listed as 0.05 ^†,‡,§. In the data set on MCF-7 cell lines, the IC50 stood at 0.97 ± 0.34 nM and the SI is 42.27 ^‡,§. In addition, the IC50 at ERα [5] was above 100 nM.
Regarding `CC(=O)c1cc(C(=O)O[C@@H]2/C=C/C(=O)O[C@@H](O)CCC/C=C/[C@@H]3C[C@H](O)C[C@H]32)ccc1OCCN1CCCC1` [Compound 3DPQ-11, (1R,2E,6R,10E,11aS,13S,14aR)-6,13-dihydroxy-4-oxo-4,6,7,8,9,11a,12,13,14,14a-decahydro-1H-cyclopenta[f][1]oxacyclotridecin-1-yl 3-acetyl-4-(2-(pyrrolidin-1-yl)ethoxy)benzoate], in the data set on MDA-MB-231 cell lines, the IC50 came to 67.12 ± 0.54 nM. Further, at ERα [1], the IC50 was 0.7 ± 0.33 nM; the Ki turned out to be 0.00016 µM; the “logRBA ERα” value is on record as 2.10 ^‡; the “ERα potency, fold higher than Ral” value is listed as 1.06 fold. In data set [2], this molecule came in with a half-inhibitory concentration (IC50) above 100 nM. The same molecule gave an IC50 in [3] of 1.37 ± 0.47 nM. For the same molecule, in the data set with MCF-7 cells (0.1 nM), the “Cell Cycle (%) G0/G1” value was 72.53 ± 0.47 *^,†,‡,§ %, the “Cell Cycle (%) G2/M” value is 14.16 ± 2.13 *^,†,‡,§ % and the “Cell Cycle (%) S” value is on record as 13.31 ± 1.66 *^,†,‡,§ %. Moreover, in the data set on MCF-7 cells (1 nM), the “Cell Cycle (%) G0/G1” value is listed as 74.99 ± 2.54 *^,†,‡,§ %, the “Cell Cycle (%) G2/M” value was 11.00 ± 3.43 *^,†,‡,§ % and the “Cell Cycle (%) S” value is 14.02 ± 1.43 *^,†,‡,§ %. The IC50 at 48 h in data set [4] is above 0.1 µM. For the same molecule, at ERβ, the IC50 stood at 76.52 ± 0.48 nM, the Ki was found to be 0.043 µM and the “logRBA ERβ” value was 0.07 ^†,‡,§. In the data set with MCF-7 cell lines, the IC50 stood at 0.81 ± 0.22 nM; the “MCF-7 antiproliferative potency, fold higher than Ral” value stood at 1.10 fold; the SI is listed as 82.86 ^‡,§. The molecule also came in with an IC50 on ERα [5] above 100 nM.
